# Measurements published in the supplement of paper PMC10307832.
# How the values were obtained:
# Assay in all cases: relative viability (nuclei count vs DMSO), 5 days (fraction); higher = more cells survive
# Vemurafenib + Lapatinib = compound: CCCS(=O)(=O)Nc1ccc(F)c(C(=O)c2c[nH]c3ncc(-c4ccc(Cl)cc4)cc23)c1F [Vemurafenib] + CS(=O)(=O)CCNCc1ccc(-c2ccc3ncnc(Nc4ccc(OCc5cccc(F)c5)c(Cl)c4)c3c2)o1 [Lapatinib] (partner 2 µM)
# Outline: (§1)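 Cells from lung cancer lines were seeded into 1536-well plates and, one day later, dosed by pin tool. Treatments were either a single drug or a fixed dose of an anchor drug with five library-drug doses (not always all listed) in √10 steps. After 5 days, nuclei were stained in a one-step fixation (final 0.05% Triton X-100, 1% formaldehyde, 1 ug/ml Hoechst) and counted on 4× images, and relative viability is the treated-to-vehicle nuclei ratio, as the median of duplicate plates.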
# OSI-027 + Lapatinib = compound: COc1cccc2cc(-c3nc([C@H]4CC[C@H](C(=O)O)CC4)n4ncnc(N)c34)[nH]c12 [OSI-027] + CS(=O)(=O)CCNCc1ccc(-c2ccc3ncnc(Nc4ccc(OCc5cccc(F)c5)c(Cl)c4)c3c2)o1 [Lapatinib] (partner 2 µM)
# Outline: as §1
# OSI-027 + Pictilisib = compound: COc1cccc2cc(-c3nc([C@H]4CC[C@H](C(=O)O)CC4)n4ncnc(N)c34)[nH]c12 [OSI-027] + CS(=O)(=O)N1CCN(Cc2cc3nc(-c4cccc5[nH]ncc45)nc(N4CCOCC4)c3s2)CC1 [Pictilisib] (partner 1 µM)
# Outline: as §1
# Alpelisib + Olaparib = compound: Cc1nc(NC(=O)N2CCC[C@H]2C(N)=O)sc1-c1ccnc(C(C)(C)C(F)(F)F)c1 [Alpelisib] + O=C(c1cc(Cc2n[nH]c(=O)c3ccccc23)ccc1F)N1CCN(C(=O)C2CC2)CC1 [Olaparib] (partner 8 µM)
# Outline: as §1
Cell Line,relative viability (Vemurafenib + Lapatinib; first compound 0.03162 µM),relative viability (Vemurafenib + Lapatinib; first compound 0.1 µM),relative viability (Vemurafenib + Lapatinib; first compound 0.3162 µM),relative viability (Vemurafenib + Lapatinib; first compound 1 µM),relative viability (OSI-027 + Lapatinib; first compound 0.01 µM),relative viability (OSI-027 + Lapatinib; first compound 0.03162 µM),relative viability (OSI-027 + Lapatinib; first compound 0.1 µM),relative viability (OSI-027 + Lapatinib; first compound 0.3162 µM),relative viability (OSI-027 + Lapatinib; first compound 1 µM),relative viability (OSI-027 + Pictilisib; first compound 0.01 µM),relative viability (OSI-027 + Pictilisib; first compound 0.03162 µM),relative viability (OSI-027 + Pictilisib; first compound 0.1 µM),relative viability (OSI-027 + Pictilisib; first compound 0.3162 µM),relative viability (OSI-027 + Pictilisib; first compound 1 µM),relative viability (Alpelisib + Olaparib; first compound 0.04 µM),relative viability (Alpelisib + Olaparib; first compound 0.1265 µM),relative viability (Alpelisib + Olaparib; first compound 0.4 µM),relative viability (Alpelisib + Olaparib; first compound 1.265 µM),relative viability (Alpelisib + Olaparib; first compound 4 µM)
NCI-H1734,0.872,1.04,0.903,0.993,1.03,1.12,0.935,0.781,0.489,0.455,0.45,0.491,0.337,0.264,0.584,0.328,0.61,0.425,0.35
NCI-H1755,0.925,1.02,0.777,0.988,1.01,1.06,1.01,0.817,0.579,0.412,0.392,0.346,0.306,0.281,0.928,0.892,0.917,0.818,0.788
NCI-H1792,0.819,0.886,0.651,0.959,0.749,0.826,0.815,0.739,0.213,0.288,0.166,0.213,0.161,0.232,0.48,0.528,0.68,0.36,0.205
NCI-H1793,0.442,–,0.645,0.872,0.619,0.65,0.559,0.264,0.26,0.421,0.329,0.276,0.222,0.179,0.805,0.714,0.685,0.495,0.367
NCI-H1915,0.894,0.951,0.87,0.985,1.03,1.07,0.918,0.885,0.806,0.947,0.988,0.78,0.716,0.572,0.264,0.288,0.303,0.236,0.235
NCI-H1944,0.818,0.815,0.725,0.789,0.802,0.875,0.799,0.631,0.444,0.369,0.349,0.32,0.287,0.247,0.41,0.431,0.427,0.341,0.337
NCI-H1975,0.806,0.983,0.709,0.919,0.897,0.864,0.958,0.688,0.401,0.279,0.236,0.312,0.178,0.218,0.689,0.859,0.838,0.563,0.625
NCI-H1993,0.843,–,0.8,0.793,0.786,0.808,0.773,0.785,0.693,0.808,0.906,0.86,0.798,0.691,1.01,0.868,1.13,0.585,0.735
NCI-H2009,0.897,0.876,0.559,0.759,0.97,0.963,0.848,0.839,0.546,0.885,0.729,0.7,0.46,0.405,0.756,0.659,0.674,0.647,0.599
NCI-H2023,0.734,0.812,0.736,0.725,0.735,0.663,0.567,0.393,0.18,0.23,0.229,0.181,0.155,0.0973,0.436,0.432,0.479,0.383,0.263
NCI-H2085,0.729,0.778,0.766,0.695,0.7,0.799,0.565,0.506,0.434,0.436,0.367,0.483,0.33,0.323,0.754,0.75,0.794,0.733,0.711
NCI-H2087,0.761,0.981,–,0.967,1.11,1.06,0.873,0.951,0.769,0.794,0.787,0.686,0.523,0.329,0.557,0.514,0.653,0.483,0.444
NCI-H2126,0.753,0.783,0.862,0.731,0.771,0.814,0.728,0.563,0.529,0.519,0.487,0.455,0.419,0.407,0.887,0.864,0.871,0.76,0.659
NCI-H2170,0.277,0.244,0.266,0.267,0.268,0.283,0.257,0.27,0.254,0.284,0.295,0.245,0.266,0.258,0.519,0.586,0.596,0.481,0.466
NCI-H2228,1.11,1.09,1.21,1.06,1.05,1.21,0.958,–,0.539,0.412,0.281,0.474,–,0.249,0.889,0.587,0.621,0.341,0.326
NCI-H2347,0.794,1.02,0.628,0.637,0.983,0.921,0.885,0.806,0.516,0.559,0.589,0.411,0.324,0.313,0.632,0.61,0.89,0.481,0.515
NCI-H2405,0.935,0.986,–,1.1,1.03,0.996,0.798,0.852,0.539,0.406,0.345,0.292,0.228,0.242,0.905,0.864,0.898,0.657,0.71
